# Source: patent US12178210B2, “Insect attractant and killing system” (priority 2020, dated 2024)
# Like-named read-outs stand apart in the source and are kept apart here.
# Key:
# [1] = for Attractant Release Rate (5-day average per time point): Ambient Temperature
# Source text: All prototype lure devices (i.e., the attractant receptacle and permeable membrane with enclosed volatile insect attractant) were constructed using polypropylene/calcium carbonate film (UV8) for the permeable membrane and Scotchpak™ (3M) polyester laminate film for the impermeable barrier material. Each lure device measured approximately 11.5 cm×5.5 cm with a 1.6 mm ( 1/16 in) diameter spherical punch in the impermeable layer exposing the membrane and an ˜8 mm ( 5/16 in) diameter heat seal around the circumference of the punch (referred to as a ring seal). […] Prior to being deployed the lures were weighed on an analytical balance (Sartorius, Universal; resolution of 0.01 g). Prototype lures were attached to a cord that ran the length of ventilated laboratory fume hood, with 5-8 cm (2-3 in) separating each lure in an open, ventilated room at the indicated temperature (18-20° C. or 39-41° C.). Every 2-3 days the lures were removed from the cord and weighed on the same scale. Lure weight was recorded and the weight loss (g/day) was calculated. In addition to prototype lures, two controls were included in the study consisting of a current Suterra lure product (WHF lure) and a competitor product (Comp. Prod. 1).
# [2] = field, Valencia
# Experimental: Every two weeks samples of the attractant were weighed to determine the mass. From the mass, the mass that had been released, the mass remaining, and the amount of ammonia released was determined.
compound,measurement,setting,value
"N.NC(=O)O [Ammonium Carbamate, ammonium carbamate]",Release Rate,"[1]; 40° C., 16 hours, UV8 membrane, 1.6 mm orifice",0.49 g/day
same,Release Rate,"[1]; 40° C., 16 hours, second, unexplained block of rows",0.02 g/day
same,Release Rate,"[1]; 40° C., 24 hours, UV8 membrane, 1.6 mm orifice",0.49 g/day
same,Release Rate,"[1]; 40° C., 24 hours, second, unexplained block of rows",0.01 g/day
same,Release Rate,"[1]; 40° C., 51 hours, UV8 membrane, 1.6 mm orifice",0.46 g/day
same,Release Rate,"[1]; 40° C., 51 hours, second, unexplained block of rows",0.01 g/day
same,Release Rate,"[1]; 40° C., 88 hours, UV8 membrane, 1.6 mm orifice",0.45 g/day
same,Release Rate,"[1]; 40° C., 88 hours, second, unexplained block of rows",0.04 g/day
same,Release Rate,"[1]; 40° C., 96 hours, UV8 membrane, 1.6 mm orifice",0.46 g/day
same,Release Rate,"[1]; 40° C., 96 hours, second, unexplained block of rows",0.06 g/day
same,Release Rate,"[1]; 40° C., 112 hours, UV8 membrane, 1.6 mm orifice",0.46 g/day
same,Release Rate,"[1]; 40° C., 112 hours, second, unexplained block of rows",0.08 g/day
same,Release Rate,"[1]; 40° C., 120 hours, UV8 membrane, 1.6 mm orifice",0.46 g/day
same,Release Rate,"[1]; 40° C., 120 hours, second, unexplained block of rows",0.09 g/day
same,Release Rate,"[1]; 40° C., 144 hours, UV8 membrane, 1.6 mm orifice",0.46 g/day
same,Release Rate,"[1]; 40° C., 144 hours, second, unexplained block of rows",0.11 g/day
same,Release Rate,"[1]; 40° C., 168 hours, UV8 membrane, 1.6 mm orifice",0.46 g/day
same,Release Rate,"[1]; 40° C., 168 hours, second, unexplained block of rows",0.13 g/day
same,Attractant Release Rate (5-day average per time point),"[1]; day 5, 15 g, UV8 membrane, 1.6 mm orifice",89.2 mg/day
same,Attractant Release Rate (5-day average per time point),"[1]; day 10, 15 g, UV8 membrane, 1.6 mm orifice",93.6 mg/day
same,Attractant Release Rate (5-day average per time point),"[1]; day 15, 15 g, UV8 membrane, 1.6 mm orifice",97.0 mg/day
same,Attractant Release Rate (5-day average per time point),"[1]; day 20, 15 g, UV8 membrane, 1.6 mm orifice",101.0 mg/day
same,Attractant Release Rate (5-day average per time point),"[1]; day 25, 15 g, UV8 membrane, 1.6 mm orifice",100.0 mg/day
same,Attractant Release Rate (5-day average per time point),"[1]; day 30, 15 g, UV8 membrane, 1.6 mm orifice",105.3 mg/day
same,Attractant Release Rate (5-day average per time point),"[1]; day 40, 15 g, UV8 membrane, 1.6 mm orifice",99.6 mg/day
same,Attractant Release Rate (5-day average per time point),"[1]; day 49, 15 g, UV8 membrane, 1.6 mm orifice",113.5 mg/day
same,Attractant Release Rate (5-day average per time point),"[1]; day 55, 15 g, UV8 membrane, 1.6 mm orifice",114.3 mg/day
same,Release Rate,"[1]; Ambient, 16 hours, UV8 membrane, 1.6 mm orifice",0.09 g/day
same,Release Rate,"[1]; Ambient, 16 hours, second, unexplained block of rows",0.00 g/day
same,Release Rate,"[1]; Ambient, 24 hours, UV8 membrane, 1.6 mm orifice",0.10 g/day
same,Release Rate,"[1]; Ambient, 24 hours, second, unexplained block of rows",0.01 g/day
same,Release Rate,"[1]; Ambient, 51 hours, UV8 membrane, 1.6 mm orifice",0.10 g/day
same,Release Rate,"[1]; Ambient, 51 hours, second, unexplained block of rows",0.00 g/day
same,Release Rate,"[1]; Ambient, 88 hours, UV8 membrane, 1.6 mm orifice",0.10 g/day
same,Release Rate,"[1]; Ambient, 88 hours, second, unexplained block of rows",0.02 g/day
same,Release Rate,"[1]; Ambient, 96 hours, UV8 membrane, 1.6 mm orifice",0.10 g/day
same,Release Rate,"[1]; Ambient, 96 hours, second, unexplained block of rows",0.02 g/day
same,Release Rate,"[1]; Ambient, 112 hours, UV8 membrane, 1.6 mm orifice",0.10 g/day
same,Release Rate,"[1]; Ambient, 112 hours, second, unexplained block of rows",0.02 g/day
same,Release Rate,"[1]; Ambient, 120 hours, UV8 membrane, 1.6 mm orifice",0.10 g/day
same,Release Rate,"[1]; Ambient, 120 hours, second, unexplained block of rows",0.00 g/day
same,Release Rate,"[1]; Ambient, 144 hours, UV8 membrane, 1.6 mm orifice",0.10 g/day
same,Release Rate,"[1]; Ambient, 144 hours, second, unexplained block of rows",0.00 g/day
same,Release Rate,"[1]; Ambient, 168 hours, UV8 membrane, 1.6 mm orifice",0.10 g/day
same,Release Rate,"[1]; Ambient, 168 hours, second, unexplained block of rows",0.00 g/day
same,Attractant Release Rate (5-day average per time point),"[1]; day 5, CM",393.2 mg/day
same,Attractant Release Rate (5-day average per time point),"[1]; day 10, CM",387.2 mg/day
same,Attractant Release Rate (5-day average per time point),"[1]; day 15, CM",362.0 mg/day
same,Attractant Release Rate (5-day average per time point),"[1]; day 20, CM",356.0 mg/day
same,Attractant Release Rate (5-day average per time point),"[1]; day 25, CM",331.6 mg/day
same,Attractant Release Rate (5-day average per time point),"[1]; day 30, CM",311.7 mg/day
same,Attractant Release Rate (5-day average per time point),"[1]; day 35, CM",306.5 mg/day
same,Attractant Release Rate (5-day average per time point),"[1]; day 40, CM",266.0 mg/day
same,Attractant Release Rate (5-day average per time point),"[1]; day 45, CM",191.6 mg/day
same,Attractant Release Rate (5-day average per time point),"[1]; day 49, CM",94.0 mg/day
same,Attractant Release Rate (5-day average per time point),"[1]; day 55, CM",10.3 mg/day
same,Avg. Mass Loss,"[2]; week 0, ave. temp. 25.10 ° C",0.00 g
same,Avg. Mass Remaining,"[2]; week 0, ave. temp. 25.10 ° C",16.90 g
same,Avg. Release Rate,"[2]; week 0, ave. temp. 25.10 ° C",0.000 g/day
same,Avg. Mass Loss,"[2]; week 2, ave. temp. 26.30 ° C",0.75 g
same,Avg. Mass Remaining,"[2]; week 2, ave. temp. 26.30 ° C",16.15 g
same,Avg. Release Rate,"[2]; week 2, ave. temp. 26.30 ° C",0.054 g/day
same,Avg. Mass Loss,"[2]; week 4, ave. temp. 26.90 ° C",1.75 g
same,Avg. Mass Remaining,"[2]; week 4, ave. temp. 26.90 ° C",15.15 g
same,Avg. Release Rate,"[2]; week 4, ave. temp. 26.90 ° C",0.071 g/day
same,Avg. Mass Loss,"[2]; week 6, ave. temp. 27.10 ° C",2.65 g
same,Avg. Mass Remaining,"[2]; week 6, ave. temp. 27.10 ° C",14.25 g
same,Avg. Release Rate,"[2]; week 6, ave. temp. 27.10 ° C",0.064 g/day
same,Avg. Mass Loss,"[2]; week 8, ave. temp. 24.40 ° C",3.48 g
same,Avg. Mass Remaining,"[2]; week 8, ave. temp. 24.40 ° C",13.42 g
same,Avg. Release Rate,"[2]; week 8, ave. temp. 24.40 ° C",0.059 g/day
same,Avg. Mass Loss,"[2]; week 10, ave. temp. 22.60 ° C",4.17 g
same,Avg. Mass Remaining,"[2]; week 10, ave. temp. 22.60 ° C",12.72 g
same,Avg. Release Rate,"[2]; week 10, ave. temp. 22.60 ° C",0.050 g/day
same,Avg. Mass Loss,"[2]; week 12, ave. temp. 21.50 ° C",4.82 g
same,Avg. Mass Remaining,"[2]; week 12, ave. temp. 21.50 ° C",12.08 g
same,Avg. Release Rate,"[2]; week 12, ave. temp. 21.50 ° C",0.046 g/day
same,Avg. Mass Loss,"[2]; week 14, ave. temp. 19.90 ° C",5.38 g
same,Avg. Mass Remaining,"[2]; week 14, ave. temp. 19.90 ° C",11.52 g
same,Avg. Release Rate,"[2]; week 14, ave. temp. 19.90 ° C",0.040 g/day
same,Avg. Mass Loss,"[2]; week 16, ave. temp. 17.70 ° C",5.72 g
same,Avg. Mass Remaining,"[2]; week 16, ave. temp. 17.70 ° C",11.18 g
same,Avg. Release Rate,"[2]; week 16, ave. temp. 17.70 ° C",0.024 g/day
same,Avg. Mass Loss,"[2]; week 18, ave. temp. 15.30 ° C",6.02 g
same,Avg. Mass Remaining,"[2]; week 18, ave. temp. 15.30 ° C",10.88 g
same,Avg. Release Rate,"[2]; week 18, ave. temp. 15.30 ° C",0.021 g/day
same,Avg. Mass Loss,"[2]; week 20, ave. temp. 14.40 ° C",6.26 g
same,Avg. Mass Remaining,"[2]; week 20, ave. temp. 14.40 ° C",10.64 g
same,Avg. Release Rate,"[2]; week 20, ave. temp. 14.40 ° C",0.017 g/day
same,Avg. Mass Loss,"[2]; week 24, ave. temp. 11.70 ° C",6.36 g
same,Avg. Mass Remaining,"[2]; week 24, ave. temp. 11.70 ° C",10.54 g
same,Avg. Release Rate,"[2]; week 24, ave. temp. 11.70 ° C",0.004 g/day
same,Avg. Mass Loss,"[2]; week 28, ave. temp. […] C",6.71 g
same,Avg. Mass Remaining,"[2]; week 28, ave. temp. […] C",10.19 g
same,Avg. Release Rate,"[2]; week 28, ave. temp. […] C",0.013 g/day
same,Avg. Mass Loss,"[2]; week 31, ave. temp. […] C",7.22 g
same,Avg. Mass Remaining,"[2]; week 31, ave. temp. […] C",9.67 g
same,Avg. Release Rate,"[2]; week 31, ave. temp. […] C",0.024 g/day
same,Avg. Mass Loss,"[2]; week 35, ave. temp. 12.60 ° C",7.63 g
same,Avg. Mass Remaining,"[2]; week 35, ave. temp. 12.60 ° C",9.26 g
same,Avg. Release Rate,"[2]; week 35, ave. temp. 12.60 ° C",0.015 g/day
same,Avg. Mass Loss,"[2]; week 38, ave. temp. 13.50 ° C",8.07 g
same,Avg. Mass Remaining,"[2]; week 38, ave. temp. 13.50 ° C",8.83 g
same,Avg. Release Rate,"[2]; week 38, ave. temp. 13.50 ° C",0.021 g/day
same,Avg. Mass Loss,"[2]; week 39, ave. temp. 13.30 ° C",8.24 g
same,Avg. Mass Remaining,"[2]; week 39, ave. temp. 13.30 ° C",8.66 g
same,Avg. Release Rate,"[2]; week 39, ave. temp. 13.30 ° C",0.024 g/day
same,Avg. Mass Loss,"[2]; week 41, ave. temp. 15.80 ° C",8.55 g
same,Avg. Mass Remaining,"[2]; week 41, ave. temp. 15.80 ° C",8.35 g
same,Avg. Release Rate,"[2]; week 41, ave. temp. 15.80 ° C",0.022 g/day
same,Avg. Mass Loss,"[2]; week 43, ave. temp. 16.50 ° C",8.79 g
same,Avg. Mass Remaining,"[2]; week 43, ave. temp. 16.50 ° C",8.11 g
same,Avg. Release Rate,"[2]; week 43, ave. temp. 16.50 ° C",0.017 g/day
same,Avg. Mass Loss,"[2]; week 46, ave. temp. 18.10 ° C",9.45 g
same,Avg. Mass Remaining,"[2]; week 46, ave. temp. 18.10 ° C",7.44 g
same,Avg. Release Rate,"[2]; week 46, ave. temp. 18.10 ° C",0.032 g/day
same,Avg. Mass Loss,"[2]; week 47, ave. temp. 20.40 ° C",9.75 g
same,Avg. Mass Remaining,"[2]; week 47, ave. temp. 20.40 ° C",7.14 g
same,Avg. Release Rate,"[2]; week 47, ave. temp. 20.40 ° C",0.043 g/day
